From PMC10193966, “Structure of WNT inhibitor adenomatosis polyposis coli down-regulated 1 (APCDD1), a cell-surface lipid-binding protein” (Proceedings of the National Academy of Sciences of the …, 2023)

Target: T1, eMBP-APCDD1 (APCDD1 ECD; lipid in ABD2) (Mus musculus, UniProt Q3U128)
T1 construct: extracellular domain residues 47-481, N-terminal engineered MBP fusion, C-terminal 8xHis; secreted from HEK293T (kifunensine); Endo-F1 and carboxypeptidase A/B treated in situ; single-span membrane protein without TM
T1 sequence (Q3U128 47-481): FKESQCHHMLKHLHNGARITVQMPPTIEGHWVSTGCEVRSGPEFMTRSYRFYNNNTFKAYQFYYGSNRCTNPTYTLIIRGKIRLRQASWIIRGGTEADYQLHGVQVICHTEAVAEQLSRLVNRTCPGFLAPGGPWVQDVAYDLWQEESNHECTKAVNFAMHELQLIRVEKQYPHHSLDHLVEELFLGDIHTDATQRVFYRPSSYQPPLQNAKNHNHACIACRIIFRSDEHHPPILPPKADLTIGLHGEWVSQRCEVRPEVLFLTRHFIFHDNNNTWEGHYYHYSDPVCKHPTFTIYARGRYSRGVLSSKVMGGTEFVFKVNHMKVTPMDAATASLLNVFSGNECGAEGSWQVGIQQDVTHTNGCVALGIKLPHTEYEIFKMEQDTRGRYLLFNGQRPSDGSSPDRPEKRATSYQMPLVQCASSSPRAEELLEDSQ
Assay: X-ray crystal structure ([…] Å); HPLC/MS of extract from purified APCDD1
Assay type: binding
Settings: co-purified lipid from HEK293 expression with 2% serum; ABD2 hydrophobic pocket, chains A and C; MS sample named only purified APCDD1

Structure (SMILES): CCCCCCCCCCCCCCCCCC(=O)O [stearic acid]
- X-ray crystal structure (2.3 Å); HPLC/MS of extract from purified APCDD1: This analysis revealed stearic acid, a C18 fatty acid
